Measurements reported in article PMC8371461 (Frontiers in Pharmacology, 2021).
Read-outs that look alike come from different tables or passages of the source.

What was measured:
Assay in all cases: Kd select analysis (DiscoverX)
Assay type in all cases: binding
DYRK2 = molecular target: T1, DYRK2 (Homo sapiens, UniProt Q92630)
T1 construct: purchased DiscoverX (KINOMEscan)
T1 sequence (Q92630 1-601): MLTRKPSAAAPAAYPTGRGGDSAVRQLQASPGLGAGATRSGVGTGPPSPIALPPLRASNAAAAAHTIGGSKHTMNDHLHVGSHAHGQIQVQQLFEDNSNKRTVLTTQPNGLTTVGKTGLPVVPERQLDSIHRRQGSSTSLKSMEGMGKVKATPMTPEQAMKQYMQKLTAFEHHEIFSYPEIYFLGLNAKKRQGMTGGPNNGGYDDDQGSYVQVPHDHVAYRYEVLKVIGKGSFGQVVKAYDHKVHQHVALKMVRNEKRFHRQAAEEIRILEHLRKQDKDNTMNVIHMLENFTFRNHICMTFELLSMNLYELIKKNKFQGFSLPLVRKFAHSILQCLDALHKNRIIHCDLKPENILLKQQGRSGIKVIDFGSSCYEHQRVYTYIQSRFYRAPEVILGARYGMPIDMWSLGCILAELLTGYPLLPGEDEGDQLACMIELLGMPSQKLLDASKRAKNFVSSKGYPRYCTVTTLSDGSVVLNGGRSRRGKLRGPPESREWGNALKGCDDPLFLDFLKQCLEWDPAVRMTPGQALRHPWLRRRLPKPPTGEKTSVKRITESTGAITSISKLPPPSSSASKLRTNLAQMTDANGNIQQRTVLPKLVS
Protocol: (§1) Hits are identified by an ultra-sensitive quantitative PCR detecting the specific DNA tag linked to each kinase (Supplementary Figure S2). The drug is used at a concentration of 10 µM and results are expressed as the percentage of signal (kinase PCR detection) with respect to DMSO control conditions. Thirteen hits were identified, with a signal reduction ranging from 0 to 27% (Table 3). Full raw data are presented in Supplementary Table S4. Interactions between 0 and 20% of reduction were considered to be the most significant ones. […] A sub-micromolar affinity (Kd<1 µM) was only seen with two PIKs (PIP4K2C, PI4KB) and GAK (Table 4). Inhibitions curves from these compounds are shown in Supplementary Figure S3.

MKNK2 = molecular target: T2, MKNK2 (Homo sapiens, UniProt Q9HBH9)
T2 construct: purchased DiscoverX (KINOMEscan)
Protocol: as §1

GAK = molecular target: T3, GAK (Homo sapiens, UniProt O14976)
T3 construct: T7 phage fusion (kinase-tagged phage); purchased DiscoverX; host or cells: BL21-derived E. coli (T7 phage)
T3 sequence (O14976 1-1311): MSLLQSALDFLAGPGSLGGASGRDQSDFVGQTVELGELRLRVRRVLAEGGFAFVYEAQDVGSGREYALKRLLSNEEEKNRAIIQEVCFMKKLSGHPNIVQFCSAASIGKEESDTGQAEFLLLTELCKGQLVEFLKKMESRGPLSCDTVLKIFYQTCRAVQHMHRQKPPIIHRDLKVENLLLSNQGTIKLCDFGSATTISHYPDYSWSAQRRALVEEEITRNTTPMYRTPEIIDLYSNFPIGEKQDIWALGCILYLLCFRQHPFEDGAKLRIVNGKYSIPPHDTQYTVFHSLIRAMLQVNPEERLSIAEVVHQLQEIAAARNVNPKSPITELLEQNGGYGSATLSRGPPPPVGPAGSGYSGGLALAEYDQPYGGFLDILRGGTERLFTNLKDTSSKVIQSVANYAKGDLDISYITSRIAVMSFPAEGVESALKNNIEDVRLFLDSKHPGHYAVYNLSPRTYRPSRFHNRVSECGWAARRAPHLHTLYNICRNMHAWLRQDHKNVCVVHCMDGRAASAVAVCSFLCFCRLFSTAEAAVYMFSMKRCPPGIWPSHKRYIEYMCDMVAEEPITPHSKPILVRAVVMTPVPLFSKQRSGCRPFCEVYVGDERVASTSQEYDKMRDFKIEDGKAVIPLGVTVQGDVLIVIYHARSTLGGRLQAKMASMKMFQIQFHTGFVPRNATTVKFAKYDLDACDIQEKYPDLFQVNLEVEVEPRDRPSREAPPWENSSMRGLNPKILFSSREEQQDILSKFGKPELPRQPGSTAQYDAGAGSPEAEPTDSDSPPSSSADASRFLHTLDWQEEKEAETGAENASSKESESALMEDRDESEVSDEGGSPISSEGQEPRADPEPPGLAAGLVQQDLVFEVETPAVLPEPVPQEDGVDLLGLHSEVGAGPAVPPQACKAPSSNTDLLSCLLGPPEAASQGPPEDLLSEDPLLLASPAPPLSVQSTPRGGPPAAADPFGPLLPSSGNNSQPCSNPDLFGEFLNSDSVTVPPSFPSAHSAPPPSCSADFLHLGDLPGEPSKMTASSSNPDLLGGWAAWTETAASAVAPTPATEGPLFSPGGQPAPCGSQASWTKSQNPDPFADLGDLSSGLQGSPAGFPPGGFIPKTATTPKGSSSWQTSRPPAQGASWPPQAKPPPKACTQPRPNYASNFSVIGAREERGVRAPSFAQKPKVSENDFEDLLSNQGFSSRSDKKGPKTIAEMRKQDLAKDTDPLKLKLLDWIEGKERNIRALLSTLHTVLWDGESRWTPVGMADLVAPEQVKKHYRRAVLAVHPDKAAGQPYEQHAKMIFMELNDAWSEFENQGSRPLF
Protocol: as §1

RIOK2 = molecular target: T4, RIOK2 (Homo sapiens, UniProt Q9BVS4)
T4 construct: T7 phage fusion (kinase-tagged phage); purchased DiscoverX; host or cells: BL21-derived E. coli (T7 phage)
Protocol: as §1

PI4KB = molecular target: T5, PI4KB (Homo sapiens, UniProt Q9UBF8)
T5 construct: T7 phage fusion (kinase-tagged phage); purchased DiscoverX; host or cells: BL21-derived E. coli (T7 phage)
Protocol: as §1

[1] = sub-micromolar affinity, read-out: Kd

T5 sequence (Q9UBF8 whole entry, the tested form may be a part): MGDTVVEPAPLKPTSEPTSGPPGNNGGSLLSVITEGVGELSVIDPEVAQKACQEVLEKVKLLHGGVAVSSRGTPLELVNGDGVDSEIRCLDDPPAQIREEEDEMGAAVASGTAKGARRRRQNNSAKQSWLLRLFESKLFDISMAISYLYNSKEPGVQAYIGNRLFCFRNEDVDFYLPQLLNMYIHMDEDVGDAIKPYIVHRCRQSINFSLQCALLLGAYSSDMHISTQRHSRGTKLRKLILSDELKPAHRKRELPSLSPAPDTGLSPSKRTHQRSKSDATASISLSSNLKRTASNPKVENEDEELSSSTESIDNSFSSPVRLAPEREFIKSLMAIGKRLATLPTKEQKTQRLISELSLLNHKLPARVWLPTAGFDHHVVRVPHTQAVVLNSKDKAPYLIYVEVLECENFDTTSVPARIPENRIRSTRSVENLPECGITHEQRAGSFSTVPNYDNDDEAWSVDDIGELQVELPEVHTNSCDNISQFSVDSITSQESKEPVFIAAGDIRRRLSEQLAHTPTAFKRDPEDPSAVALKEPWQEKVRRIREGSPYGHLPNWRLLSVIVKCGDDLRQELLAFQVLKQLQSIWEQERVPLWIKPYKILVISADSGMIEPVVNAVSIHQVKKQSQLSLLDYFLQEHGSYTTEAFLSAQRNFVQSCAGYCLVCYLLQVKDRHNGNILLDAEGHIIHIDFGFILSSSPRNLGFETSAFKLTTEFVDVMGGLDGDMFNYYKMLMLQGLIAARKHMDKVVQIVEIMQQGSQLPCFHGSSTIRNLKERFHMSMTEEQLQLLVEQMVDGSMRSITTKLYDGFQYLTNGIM
T2 sequence (Q9HBH9 whole entry): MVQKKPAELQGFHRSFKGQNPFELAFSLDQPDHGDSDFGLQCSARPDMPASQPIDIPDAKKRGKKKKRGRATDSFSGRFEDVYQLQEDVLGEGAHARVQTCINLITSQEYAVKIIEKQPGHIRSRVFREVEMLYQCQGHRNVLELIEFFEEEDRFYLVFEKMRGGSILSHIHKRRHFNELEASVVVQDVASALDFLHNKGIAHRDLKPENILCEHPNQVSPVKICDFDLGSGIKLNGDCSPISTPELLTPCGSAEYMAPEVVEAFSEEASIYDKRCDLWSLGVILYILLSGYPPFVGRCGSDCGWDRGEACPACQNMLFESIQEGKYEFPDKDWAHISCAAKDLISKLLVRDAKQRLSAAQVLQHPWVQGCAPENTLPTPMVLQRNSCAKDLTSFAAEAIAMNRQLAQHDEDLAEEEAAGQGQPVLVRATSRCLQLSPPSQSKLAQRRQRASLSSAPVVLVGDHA
T4 sequence (Q9BVS4 whole entry, the tested form may be a part): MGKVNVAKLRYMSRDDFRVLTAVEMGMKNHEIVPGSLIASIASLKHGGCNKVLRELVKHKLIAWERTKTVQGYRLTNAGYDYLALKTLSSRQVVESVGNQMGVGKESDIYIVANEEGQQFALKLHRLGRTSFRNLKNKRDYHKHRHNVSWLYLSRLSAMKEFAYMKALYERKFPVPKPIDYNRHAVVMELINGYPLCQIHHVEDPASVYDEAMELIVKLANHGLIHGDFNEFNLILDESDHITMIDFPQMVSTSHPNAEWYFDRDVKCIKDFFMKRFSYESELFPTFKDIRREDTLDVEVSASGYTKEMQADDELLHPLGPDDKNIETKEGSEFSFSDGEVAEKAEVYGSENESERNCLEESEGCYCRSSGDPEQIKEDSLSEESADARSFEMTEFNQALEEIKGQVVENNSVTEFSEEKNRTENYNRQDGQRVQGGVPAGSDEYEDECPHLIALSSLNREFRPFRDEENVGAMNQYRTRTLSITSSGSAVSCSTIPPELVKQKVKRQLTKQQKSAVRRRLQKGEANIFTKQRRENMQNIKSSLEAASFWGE

Q: How did the Kd (DYRK2) turn out when `Nc1ccc(N=Nc2ccccc2)c(N)n1` [phenazopyridine, 2,6-diamino-3-(phenylazo)pyridine] was run?
A: Its Kd is 5 µM.

Q: What about the Kd (MKNK2) of the same molecule?
A: The Kd was 2.1 µM.

Q: And the Kd (GAK; Phenazopyridine Kd (nM))?
A: Its Kd is 760 nM.

Q: What about the Kd (GAK; [1]) of the same molecule?
A: The Kd was less than 1000 nM.

Q: And the Kd (RIOK2)?
A: Its Kd is 1 µM.

Q: What about the Kd (PI4KB; Phenazopyridine Kd (nM)) of the same molecule?
A: The Kd was 730 nM.

Q: What about the Kd (PI4KB; [1]) of the same molecule?
A: Its Kd is less than 1000 nM.
